Measured values as given in patent US6039931A, “Derivatized DTPA complexes, pharmaceutical agents containing these compounds, their use, and processes for their production” (Schering Aktiengesellschaft, priority 1989, dated 2000).

Legend:
[1] = system: female rats of the strain Lew/Mol; details: at this point in time after administration; commercial contrast medium; cited from earlier work
[2] = system: female rats of the strain Lew/Mol; assay: in vivo MRI imaging (T1-weighted spin echo, 2 tesla) after i.v. administration, 3 compounds; parameters: species or system rat (Lew/Mol); details: 0.1 mmol Gd/kg i.v.
Source text: The test animals were female rats of the strain Lew/Mol weighing 160-180 g. Prior to imaging, the animals were anesthetized ("Rompun"+"Ketavet") and provided with a catheter in the caudal vein to administer the contrast medium. Imaging took place in an MRI experimental device by General Electric (field strength 2 tesla). First of all, the images (7, 9, 11) were made without contrast medium with a T1 -weighted spin echo sequence (TR=400 msec, TE=20 msec, axial section plane, layer thickness 3 mm). The liver appears in each case with the normal signal intensity; the stomach is […] in tendency than the liver. […] This is due to feed residues, the feed containing manganese in relatively high concentrations (at the time of the test, the animals had been fasting for 6 hours) . Animal 3 had been implanted with an osteogenic sarcoma three weeks previously; this sarcoma was of equal contrast in the blank image and could not be defined. The administration of contrast medium took place via the venous catheter with a dose of 0.1 mmol Gd/kg (concentration of the solutions 0.05 mmol Gd/ml in 0.9% NaCl) for all 3 compounds.

[3] = T1 relaxation (relaxivity) in water and in plasma; assay type: physicochemical
[4] = system: male hairless rat (Lew/Mol), Brown Pearce tumor; assay: in vivo NMR imaging (spin echo, 2 tesla) after i.v. administration, rat with Brown Pearce tumor in the thigh; details: 0.06 mmol/kg i.v.
Source text: Spin echo scans were made with the NMR tomograph (CSI 2 T) at 2 tesla (TR time of 400 ms and TE time of 20 ms).

## CNC[C@H](O)[C@@H](O)[C@H](O)[C@H](O)CO.CNC[C@H](O)[C@@H](O)[C@H](O)[C@H](O)CO.O=C([O-])CN(CCN(CC(=O)[O-])CC(=O)O)CCN(CC(=O)[O-])CC(=O)O.[Gd+3] [Magnevist, dimeglumine salt of Gd DTPA [gadolinium(III)complex of diethylenetriaminepentaacetic acid]]
[1]
  enhancement of the liver (uptake by the hepatocytes), comparison: cannot be observed at this point in time after administration

## CCOc1ccc(CC(CN(CCN(CC(=O)[O-])CC(=O)[O-])CC(=O)[O-])N(CC(=O)[O-])CC(=O)[O-])cc1.[Gd+3].[Na+].[Na+] (stereo not drawn) [Example 8(c), Disodium Salt of the Gadolinium Complex of 3,6,9-Triaza-3,6,9-tris(carboxymethyl)-4-(4-ethoxybenzyl)undecanedioic Acid]
[2]
  enhancement of the stomach, ranking among the 3 compounds: least
[2]; after 90 minutes
  enhancement of the liver: A marked enhancement of the liver

## O=C([O-])CN(CCN(CC(=O)[O-])CC(Cc1ccc(OCc2ccccc2)cc1)N(CC(=O)[O-])CC(=O)[O-])CC(=O)[O-].[Gd+3].[Na+].[Na+] (stereo not drawn) [Example 10(c), Disodium Salt of the Gadolinium Complex of 3,6,9-Triaza-3,6,9-tris(carboxymethyl)-4-(4-benzyloxybenzyl)undecanedioic Acid]
[2]
  enhancement of the stomach, ranking among the 3 compounds: most strongly
[2]; after 60 minutes
  enhancement of the liver: A marked enhancement of the liver
[2]; animal 3, 60 minutes
  absorption of the contrast medium by the tumor (implanted osteogenic sarcoma): has not absorbed the contrast medium at all, or only to a lesser proportion
  visibility of the tumor (implanted osteogenic sarcoma): the tumor is now additionally clearly visible

## CCCCOc1ccc(CC(CN(CCN(CC(=O)[O-])CC(=O)[O-])CC(=O)[O-])N(CC(=O)[O-])CC(=O)[O-])cc1.[Gd+3].[Na+].[Na+] (stereo not drawn) [Example 9(c), Disodium Salt of the Gadolinium Complex of 3,6,9-Triaza-3,6,9-tris(carboxymethyl)-4-(4-butoxybenzyl)undecanedioic Acid]
[3]; in plasma
  T1 relaxation: 14.20 ± 0.98 mmol⁻¹ s⁻¹
[3]; in water
  T1 relaxation: 5.80 ± 0.26 mmol⁻¹ s⁻¹
[2]; after 60 minutes
  enhancement of the liver: A marked enhancement of the liver

## COc1ccc(CC(CN(CCN(CC(=O)[O-])CC(=O)[O-])CC(=O)[O-])N(CC(=O)[O-])CC(=O)[O-])cc1.[Gd+3].[Na+].[Na+] (stereo not drawn) [Example 1(c) disodium salt, Gadolinium Complex of 3,6,9-Triaza-3,6,9-tris(carboxymethyl)-4-(4-methoxybenzyl)undecanedioic Acid]
[4]; 1 minute after administration
  enhancement in the urinary bladder: the first enhancement is already apparent in the urinary bladder
[4]; 45 minutes after injection
  increase in contrast in the stomach: A strong increase in contrast is visible in the stomach
[4]; 60 minutes after injection
  visualization of the tumor, of the urinary bladder, and of the stomach: A good visualization of the tumor (at the level of the reference tube) of the urinary bladder, and of the stomach
[4]; 60 minutes, further improved 65 minutes after injection in a different layer
  contrasting of the renal pelvis: Contrasting of the renal pelvis is also striking
[4]; 180 minutes after injection
  contrast enhancement in an axial scan in the zone of the liver: the contrast enhancement is likewise clearly recognizable
